# Measurements: ChEMBL document CHEMBL1145829, “Estrogen receptor modulators: identification and structure-activity relationships of potent ERalpha-selective tetrahydroisoquinoline ligands” (J Med Chem, 2003)
# Assays:
# MCF7 [1] = test: cells; conditions: Homo sapiens
# MCF7 [2] = tested on: MCF7
# Estrogen receptor beta [3] = target: T1, Estrogen receptor beta (Homo sapiens, UniProt Q92731)
# Estrogen receptor beta [4] = target: T1, Estrogen receptor beta; remark: listed apart in the source
# Estrogen receptor [5] = target: T2, Estrogen receptor (Homo sapiens, UniProt P03372)
# T2 sequence (P03372 whole entry): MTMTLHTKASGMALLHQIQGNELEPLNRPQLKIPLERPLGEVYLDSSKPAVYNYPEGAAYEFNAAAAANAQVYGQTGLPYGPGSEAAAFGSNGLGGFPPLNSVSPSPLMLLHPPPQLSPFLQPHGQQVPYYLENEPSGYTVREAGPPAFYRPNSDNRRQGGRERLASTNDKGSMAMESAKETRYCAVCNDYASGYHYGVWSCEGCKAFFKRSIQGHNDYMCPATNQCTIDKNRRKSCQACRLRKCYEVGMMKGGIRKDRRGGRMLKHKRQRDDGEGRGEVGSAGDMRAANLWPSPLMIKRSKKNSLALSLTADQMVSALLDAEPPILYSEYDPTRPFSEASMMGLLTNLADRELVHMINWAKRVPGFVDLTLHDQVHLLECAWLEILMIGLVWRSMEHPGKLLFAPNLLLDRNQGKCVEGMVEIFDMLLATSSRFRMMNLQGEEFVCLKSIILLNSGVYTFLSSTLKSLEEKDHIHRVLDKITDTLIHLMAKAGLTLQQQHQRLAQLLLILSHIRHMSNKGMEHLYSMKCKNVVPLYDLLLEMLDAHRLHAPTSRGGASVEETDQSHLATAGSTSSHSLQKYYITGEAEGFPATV
# MCF7 [6] = test: cells; conditions: Homo sapiens; remark: listed apart in the source
# Estrogen receptor [7] = target: T2, Estrogen receptor; remark: listed apart in the source
# Rattus norvegicus = test: Maximal blood concentration after peroral administration (dose normalized) (5 mg/kg) in conscious rat; format: ADME, organism-based; design: dose 5 mg/kg, route oral; conditions: in vivo, po
# [8] = Terminal half life was tested after peroral administration (5 mg/kg) in conscious rat; format: ADME, organism-based; conditions: in vivo, po
# [9] = Total clearance value was tested after peroral administration (5 mg/kg ) in conscious rat; format: ADME, organism-based; conditions: in vivo, po
# in vivo = conditions: rat, po, 5 mg/kg
# MCF7 [10] = tested on: MCF7; remark: listed apart in the source
# Estrogen receptor [11] = target: T2, Estrogen receptor; test: Inhibition of estrogen receptor alpha mediated transcriptional activation
SMILES,EC50 (MCF7 [1]) [nM],Agonism (MCF7 [2]) [%],IC50 (Estrogen receptor beta [3]) [nM],IC50 (Estrogen receptor beta [4]) [nM],IC50 (Estrogen receptor [5]) [nM],IC50 (MCF7 [6]) [nM],IC50 (Estrogen receptor [7]) [nM],Cmax (Rattus norvegicus) [nM],half-life [8] [h],CL/F [9] [mL/min/kg],bioavailability (in vivo) [%],EC50 (MCF7 [10]) [pnM],IC50 (Estrogen receptor [11]) [nM]
CC(C)c1ccc(N2CCc3cc(O)ccc3C2(C)c2ccc(OCCN3CCCCC3)cc2)cc1 (centres undefined),< 0.1,14,4780,3690,71,3.4,,,,,,,
CC(C)c1cccc(N2CCc3cc(O)ccc3C2(C)c2ccc(OCCN3CCCCC3)cc2)c1 (centres undefined),< 0.4,16,492,1100,46,27,16.1,,,,,,
CC1(c2ccc(OCCN3CCCCC3)cc2)c2ccc(O)cc2CCN1c1cccc(O)c1 (centres undefined),< 0.1,10,47,304,34,2,,,,,,,
CC1(c2ccc(OCCN3CCCC3)cc2)c2ccc(O)cc2CCN1c1ccc(Cl)cc1 (centres undefined),< 0.1,10,531,302,27,6.2,3.3,,,,,,
CC1(c2ccc(OCCN3CCCCC3)cc2)c2ccc(O)cc2CCN1c1ccc(F)cc1 (centres undefined),,13,92,317,,,,16,7.1,64.9,56,,
Oc1ccc2c(c1)CCN(c1ccccc1)C2c1ccc(OCCN2CCCCC2)cc1 (centres undefined),,,,,,,,31,3.5,51.9,42,< 0.15,
CN(C)c1cccc(N2CCc3cc(O)ccc3C2(C)c2ccc(OCCN3CCCCC3)cc2)c1 (centres undefined),< 0.5,18,2180,3110,71,36,19.8,,,,,,
CC1(c2ccc(OCCN3CCCCC3)cc2)c2ccc(O)cc2CCN1c1ccccc1 (centres undefined),< 0.1,13,83,104,29,4,,5.2,5.2,116,23,,
CC1(c2ccc(OCCN3CCCC3)cc2)c2ccc(O)cc2CCN1c1ccc(F)cc1 (centres undefined),< 0.1,16,82,204,31,3.5,,20,8.6,45.2,53,,
CC1(c2ccc(OCCN3CCCCC3)cc2)c2ccc(O)cc2CCN1c1ccc(Cl)cc1 (centres undefined),< 0.1,8,552,396,35,5.2,,,,,,,
CC1(c2ccc(OCCN3CCCCC3)cc2)c2ccc(O)cc2CCN1c1cccc(Cl)c1 (centres undefined),< 0.1,18,159,284,49,8,,,,,,,
Oc1ccc2c(c1)CCN(c1ccccc1)C2c1ccc(F)cc1 (centres undefined),1,,,,,,,,,,,,
Cc1ccc(N2CCc3cc(O)ccc3C2(C)c2ccc(OCCN3CCCCC3)cc2)cc1 (centres undefined),< 0.1,9,486,421,28,4,2.9,,,,,,
Cl.Oc1ccc2c(c1)CC[C@H](c1ccccc1)[C@@H]2c1ccc(OCCN2CCCC2)cc1,0.02,,,,,,,15.5,5.2,55.7,38,,
CCC(=C(c1ccc(O)cc1)c1ccc(OCCN(C)C)cc1)c1ccccc1,0.12,31,,,,8.5,,,,,,,
Oc1ccc2c(c1)CCN(c1ccccc1)C2c1ccc(OCCN2CCCC2)cc1 (centres undefined),< 0.1,34,291,166,21,29,10.7,55,3,55,73,,
CC1(c2ccc(OCCN3CCCC3)cc2)c2ccc(O)cc2CCN1c1cccc(F)c1 (centres undefined),< 0.1,5,198,123,39,3.8,,,,,,,
CC1(c2ccc(OCCN3CCCC3)cc2)c2ccc(O)cc2CCN1c1cccc(Cl)c1 (centres undefined),< 0.1,20,106,272,66,7,,,,,,,
CN(C)c1cccc(N2CCc3cc(O)ccc3C2(C)c2ccc(OCCN3CCCC3)cc2)c1 (centres undefined),< 0.5,19,2970,2200,94,32,19,,,,,,
Cc1ccc(N2CCc3cc(O)ccc3C2(C)c2ccc(OCCN3CCCC3)cc2)cc1 (centres undefined),< 0.1,14,448,354,31,4.1,,,,,,,3.5
CC1(c2ccc(OCCN3CCCC3)cc2)c2ccc(O)cc2CCN1c1cccc(O)c1 (centres undefined),< 0.5,15,33,190,,2,,5.3,5.9,130,15,,
CC1(c2ccc(OCCN3CCCCCC3)cc2)c2ccc(O)cc2CCN1c1ccccc1 (centres undefined),< 0.1,13,80,200,56,6,,,,,,,
CC(C)c1ccc(N2CCc3cc(O)ccc3C2(C)c2ccc(OCCN3CCCC3)cc2)cc1 (centres undefined),< 0.1,10,4970,1970,44,3.2,,,,,,,
CC1(c2ccc(OCCN3CCCC3)cc2)c2ccc(O)cc2CCN1c1ccccc1 (centres undefined),,,83,227,38,,,,,,,,
Cl.O=C(c1ccc(OCCN2CCCCC2)cc1)c1c(-c2ccc(O)cc2)sc2cc(O)ccc12 [RALOXIFENE HYDROCHLORIDE],0.02,,,,,,,7.5,1.7,158,,,
CC/C(=C(\c1ccccc1)c1ccc(OCCN(C)C)cc1)c1ccccc1 [TAMOXIFEN],10,,,,,,,,,,,,
